Columns and labels:
[1] = tumour-inoculated ICR/JCL mice, intraperitoneally once a day for 10 days, doses 25 mg/kg to 0.19 mg/kg, Behres-Karber's method, observed up to 50 days
[2] = test system: Ehrlich ascites carcinoma cells; details: for ED50: maximum dose level at which mice survive 100 to 200 percent of control survival days, intraperitoneally once a day for 10 days, doses 25 mg/kg to 0.19 mg/kg; for anti-tumor effect (in words): mouse, in vivo
[3] = test system: Ehrlich ascites carcinoma cells; test: Life-prolongation effect and toxicity in mice inoculated with ascites type Ehrlich carcinoma; details: mouse, in vivo

For `Cc1c(N)nc([C@H](CC(N)=O)NC[C@H](N)C(N)=O)nc1C(=O)N[C@H](C(=O)N[C@H](C)[C@@H](O)[C@H](C)C(=O)N[C@H](C(=O)NCCc1nc(-c2nc(C(=O)NCCCNCCCCN)cs2)cs1)[C@@H](C)O)[C@@H](O[C@@H]1O[C@@H](CO)[C@@H](O)[C@H](O)[C@@H]1O[C@@H]1O[C@H](CO)[C@@H](O)[C@H](OC(N)=O)[C@@H]1O)c1cnc[nH]1` [Compound 7, Bleomycin A5, reference compound], the LD50 [1] was 15.6, the ED50 [2] was 0.19 and the “anti-tumor effect (in words)” value [2] was “strong in anti-tumor property”. The “toxicity (in words)” value [3] was “less in toxicity”.

Compound `Cc1c(N)nc(C(CC(N)=O)NCC(N)C(N)=O)nc1C(=O)NC(C(=O)NC(C)C(O)C(C)C(=O)NC(C(=O)NCCc1nc(-c2nc(C(=O)NCCCNCCCNC(C)c3ccccc3)cs2)cs1)C(C)O)C(OC1OC(CO)C(O)C(O)C1OC1OC(CO)C(O)C(OC(N)=O)C1O)c1cnc[nH]1` (centres unmarked) [Compound 15] has an LD50 [1] of 13.1 and an ED50 [2] of 0.39.

Compound `Cc1c(N)nc([C@H](CC(N)=O)NC[C@H](N)C(N)=O)nc1C(=O)N[C@H](C(=O)N[C@H](C)[C@@H](O)[C@H](C)C(=O)N[C@H](C(=O)NCCc1nc(-c2nc(C(=O)NCCCCN=C(N)N)cs2)cs1)[C@@H](C)O)[C@@H](O[C@@H]1O[C@@H](CO)[C@@H](O)[C@H](O)[C@@H]1O[C@H]1O[C@H](CO)[C@@H](O)[C@H](OC(N)=O)[C@@H]1O)c1cnc[nH]1` [Compound 3, Bleomycin B2, reference compound] has an LD50 [1] of 7.5 and an ED50 [2] of 0.78.

With `Cc1c(N)nc(C(CC(N)=O)NCC(N)C(N)=O)nc1C(=O)NC(C(=O)NC(C)C(O)C(C)C(=O)NC(C(=O)NCCc1nc(-c2nc(C(=O)NCCCNC(C)c3ccccc3)cs2)cs1)C(C)O)C(OC1OC(CO)C(O)C(O)C1OC1OC(CO)C(O)C(OC(N)=O)C1O)c1cnc[nH]1` (centres unmarked) [Compound 35, 3-(1-phenylethyl)-aminopropyl-amino-bleomycin] the ED50 [2] was 0.19, the “anti-tumor effect (in words)” value [2] was “excellent in effect” and the “toxicity (in words)” value [3] was “less toxicity”.
